These are literature values, as cited in patent US7833962B2, “Method of reducing hypertension by administering flavanol gylcosides” (Conopco, Inc., priority 2003, dated 2010).

“Also recorded” adds a separate entry of the source.

For data set [1], the system named is Spontaneously Hypertensive Rats (SHR). Particulars: chronic treatment, Duarte et al. 2001.
The conditions of data set [2]: compared with quercetin glucosides such as isoquercitrin.

As for `O=c1c(O)c(-c2ccc(O)c(O)c2)oc2cc(O)cc(O)c12` [quercetin aglycone, quercetin], in data set [1], the blood pressure entry is listed as “reduced blood pressure”; the glutathione peroxidase activity result is listed as “increased glutathione peroxidase activity”; the “plasma and hepatic malondialdehyde levels” value is “reduced both plasma and hepatic malondialdehyde levels”.

As for `C[C@@H]1O[C@@H](OC[C@H]2O[C@@H](Oc3c(-c4ccc(O)c(O)c4)oc4cc(O)cc(O)c4c3=O)[C@H](O)[C@@H](O)[C@@H]2O)[C@H](O)[C@H](O)[C@H]1O` [rutin, quercetin-3-rutinoside], the bioavailability entry in data set [2] is “poor bioavailability; also recorded: much lower than the glucoside isoquercitrin”.
